Assay results: the Kinase Knowledgebase extract (Sharma et al. 2016)

Target: PIK3CG (human) (UniProt P48736)
Assay: Inhibition of PIK3CG Kinase Assay

Sequence of PIK3CG (human) (P48736 whole entry, looked up): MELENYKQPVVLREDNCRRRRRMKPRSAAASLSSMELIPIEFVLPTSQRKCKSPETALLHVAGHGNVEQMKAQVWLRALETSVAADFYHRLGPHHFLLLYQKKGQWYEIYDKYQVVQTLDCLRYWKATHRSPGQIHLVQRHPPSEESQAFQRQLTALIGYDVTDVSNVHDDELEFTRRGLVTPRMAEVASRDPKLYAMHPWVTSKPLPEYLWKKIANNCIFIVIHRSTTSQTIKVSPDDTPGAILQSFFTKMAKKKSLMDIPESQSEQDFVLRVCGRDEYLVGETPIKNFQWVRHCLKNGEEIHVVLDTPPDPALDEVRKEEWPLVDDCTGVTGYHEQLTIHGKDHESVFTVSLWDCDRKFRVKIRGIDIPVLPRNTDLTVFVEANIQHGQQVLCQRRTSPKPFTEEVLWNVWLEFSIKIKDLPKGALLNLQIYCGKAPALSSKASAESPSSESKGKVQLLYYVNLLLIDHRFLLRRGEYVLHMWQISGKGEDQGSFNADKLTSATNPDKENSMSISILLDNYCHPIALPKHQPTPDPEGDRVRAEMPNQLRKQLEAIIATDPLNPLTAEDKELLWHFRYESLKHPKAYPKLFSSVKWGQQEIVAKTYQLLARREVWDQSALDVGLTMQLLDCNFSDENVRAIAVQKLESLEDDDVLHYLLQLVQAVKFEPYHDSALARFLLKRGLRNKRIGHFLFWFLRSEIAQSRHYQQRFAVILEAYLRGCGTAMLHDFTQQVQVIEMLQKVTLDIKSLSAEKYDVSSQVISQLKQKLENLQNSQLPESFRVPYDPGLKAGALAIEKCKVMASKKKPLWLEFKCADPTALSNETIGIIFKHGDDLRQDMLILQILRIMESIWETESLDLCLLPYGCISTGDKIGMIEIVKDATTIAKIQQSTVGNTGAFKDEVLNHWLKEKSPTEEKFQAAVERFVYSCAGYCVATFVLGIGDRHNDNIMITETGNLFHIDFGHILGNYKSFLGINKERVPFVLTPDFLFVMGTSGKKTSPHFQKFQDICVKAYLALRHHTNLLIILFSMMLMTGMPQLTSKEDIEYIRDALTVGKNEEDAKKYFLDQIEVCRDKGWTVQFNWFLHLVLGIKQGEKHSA

IC50 [nM]	Compound
100 to 500	O=C(O)CCc1ccc2c(n1)N=C(/C=C(\O)c1cccnc1)N1CCN=C21
100 to 500	O=C(NC1=Nc2ccccc2C2=NCCN12)c1ccsc1
500 to 2000	O=C(NC1=Nc2ccccc2C2=NCCN12)c1ccco1
> 2000	O=C(NC1=Nc2ccccc2C2=NCCN12)c1ccc(-n2cccn2)cc1
100 to 500	Cc1cc(C(=O)NC2=Nc3ccccc3C3=NCCN23)cnc1N
≤ 100	CC(=O)NC1CCN(c2ccc3c(c2)N=C(/C=C(\O)c2cccnc2)N2CCN=C32)C1 (configuration not stated)
100 to 500	C=Cc1ccc2c(c1)C1=NCCN1C(NC(=O)c1cccnc1)=N2
≤ 100	COc1c(OCC(N)=O)ccc2c1N=C(/C=C(\O)c1cccnc1)N1CCN=C21
≤ 100	COc1c(C)ccc2c1N=C(/C=C(\O)c1ccc(NC(C)=O)nc1)N1CCN=C21
> 2000	O=C(NC1=Nc2ccccc2C2=NCCN12)c1ccc(-n2cccc2)cc1
100 to 500	Cc1nc(N)ccc1C(=O)NC1=Nc2ccccc2C2=NCCN12
100 to 500	O/C(=C\C1=Nc2ccc(Cl)cc2C2=NCCN12)c1cccnc1
100 to 500	Cc1ccc2c(c1OCCN1CCOCC1)N=C(/C=C(\O)c1cccnc1)N1CCN=C21
100 to 500	O=C(NC1=Nc2cc(N3CCCCC3)ccc2C2=NCCN12)c1cccnc1
> 2000	O=C(NC1=Nc2ccccc2C2=NCCN12)c1csc([N+](=O)[O-])c1
100 to 500	Cc1ccc2c(c1)C1=NCCN1C(/C=C(\O)c1cccnc1)=N2
100 to 500	Cc1cc(Br)c2c(c1)C1=NCCN1C(/C=C(\O)c1ccc3[nH]cnc3c1)=N2
100 to 500	Cc1cccc2c1N=C(/C=C(\O)c1cccnc1)N1CCN=C21
500 to 2000	Cc1ccc(C(=O)NC2=Nc3ccccc3C3=NCCN23)c(Cl)n1
≤ 100	COc1ccc2c(c1Br)N=C(NC(=O)c1cccnc1)N1CCN=C21
100 to 500	CC(=O)Nc1ccc(/C(O)=C/C2=Nc3cc(N4CCN(C)CC4)ccc3C3=NCCN23)cn1
≤ 100	Cc1ccc(C(=O)NC2=Nc3cc(N4CCOCC4)ccc3C3=NCCN23)cn1
100 to 500	O/C(=C\C1=Nc2ccccc2C2=NCCN12)c1ccncc1

IC50 [nM]	Compound
> 2000	O=C(NC1=Nc2ccccc2C2=NCCN12)c1csc(-c2ccncc2)n1
100 to 500	O/C(=C\C1=Nc2cc(N3CCOCC3)ccc2C2=NCCN12)c1cccnc1
100 to 500	O/C(=C\C1=Nc2ccccc2C2=NCCN12)c1ccco1
500 to 2000	O=C(NC1=Nc2ccccc2C2=NCCN12)c1ccccn1
500 to 2000	Cc1cnc(C(=O)NC2=Nc3ccccc3C3=NCCN23)cn1
500 to 2000	O=C(NC1=Nc2ccc(F)cc2C2=NCCN12)c1cccs1
100 to 500	O/C(=C\C1=Nc2c(OCC3CC3)cccc2C2=NCCN12)c1cccnc1
100 to 500	Cc1ccncc1C(=O)NC1=Nc2ccccc2C2=NCCN12
≤ 100	Cc1ncccc1C(=O)NC1=Nc2ccccc2C2=NCCN12
100 to 500	COc1ccc2c(c1)N=C(NC(=O)c1cccnc1)N1CCN=C21
≤ 100	Cc1cccc2c1N=C(NC(=O)c1ccc3[nH]cnc3c1)N1CCN=C21
≤ 100	COc1c(OCc2nn[nH]n2)ccc2c1N=C(/C=C(\O)c1cccnc1)N1CCN=C21
> 2000	CSc1ccc(C(=O)NC2=Nc3ccccc3C3=NCCN23)cc1
100 to 500	O=C(NC1=Nc2cc(OCC(=O)N3CCOCC3)ccc2C2=NCCN12)c1cccnc1
> 2000	COc1cc(C(=O)NC2=Nc3ccccc3C3=NCCN23)cc(OC)c1C
500 to 2000	O=C(NC1=Nc2ccccc2C2=NCCN12)c1cnccn1
100 to 500	Cc1cccc2c1N=C(NC(=O)c1cccnc1)N1CCN=C21
≤ 100	COc1cc2c(cc1OC)C1=NCCN1C(/C=C(\O)c1sc(C)nc1C)=N2
≤ 100	COc1cccc2c1N=C(NC(=O)c1cccnc1)N1CCN=C21
≤ 100	COc1c(OCCO)ccc2c1N=C(/C=C(\O)c1cccnc1)N1CCN=C21
100 to 500	Cc1ccc2c(c1)N=C(/C=C(\O)c1cccnc1)N1CCN=C21
≤ 100	CC(=O)Nc1ccc(/C(O)=C/C2=Nc3cc(N4CCOCC4)ccc3C3=NCCN23)cn1
≤ 100	O=C(NC1=Nc2cc(Cl)ccc2C2=NCCN12)c1ccc2[nH]cnc2c1

IC50 [nM]	Compound
100 to 500	O/C(=C\C1=Nc2cc(-c3ccccc3)ccc2C2=NCCN12)c1cccnc1
100 to 500	O/C(=C\C1=Nc2cc(CN3CCOCC3)ccc2C2=NCCN12)c1cccnc1
500 to 2000	O=C(NC1=Nc2ccccc2C2=NCCN12)c1ccc(Cl)nc1
> 2000	O=C(NC1=Nc2ccccc2C2=NCCN12)c1csc(-c2cccnc2)n1
100 to 500	O/C(=C\C1=Nc2c(Br)cccc2C2=NCCN12)c1cccnc1
≤ 100	Cc1ccc(C(=O)NC2=Nc3ccccc3C3=NCCN23)cn1
≤ 100	O/C(=C\C1=Nc2ccccc2C2=NCCN12)c1cccs1
> 2000	CN(C=O)c1ccc(C(=O)NC2=Nc3ccccc3C3=NCCN23)cc1
≤ 100	COc1cc2c(cc1OC)C1=NCCN1C(NC(=O)c1ccc3[nH]cnc3c1)=N2
≤ 100	COc1ccc2c(c1OCCN1CCOCC1)N=C(/C=C(\O)c1cccnc1)N1CCN=C21
100 to 500	COc1cc2c(cc1OC)C1=NCCN1C(/C=C(\O)c1cccs1)=N2
100 to 500	O/C(=C\C1=Nc2cc(N3CCN(Cc4ccccc4)CC3)ccc2C2=NCCN12)c1cccnc1
100 to 500	CC(=O)Nc1ccc(/C(O)=C/C2=Nc3c(CN4CCOCC4)cccc3C3=NCCN23)cn1
100 to 500	CN(C)C=Nc1cncc(C(=O)NC2=Nc3ccccc3C3=NCCN23)c1
≤ 100	O=C(NC1=Nc2c(F)cccc2C2=NCCN12)c1ccc2[nH]cnc2c1
100 to 500	COc1ccc2c(c1)C1=NCCN1C(/C=C(\O)c1cccnc1)=N2
500 to 2000	NS(=O)(=O)c1ccc(C(=O)NC2=Nc3ccccc3C3=NCCN23)cc1
> 2000	COc1c(C)cc(C(=O)NC2=Nc3ccccc3C3=NCCN23)cc1C
> 2000	O/C(=C\C1=Nc2ccccc2C2=NCCN12)c1csc2ccccc12
≤ 100	COc1ccc2c(c1)N=C(NC(=O)c1ccc3[nH]cnc3c1)N1CCN=C21
100 to 500	O=C(NC1=Nc2cc(OCCO)ccc2C2=NCCN12)c1cccnc1
≤ 100	COc1ccc2c(c1OC)N=C(NC(=O)c1cnc3[nH]cnc3c1)N1CCN=C21
≤ 100	COc1cc2c(c(OC)c1C)N=C(NC(=O)c1cccnc1C)N1CCN=C21

IC50 [nM]	Compound
≤ 100	O=C(NC1=Nc2ccccc2C2=NCCN12)c1cnc2[nH]cnc2c1
> 2000	CN(C)c1cccc(C(=O)NC2=Nc3ccccc3C3=NCCN23)c1
> 2000	O=C(NC1=Nc2ccccc2C2=NCCN12)c1ccc([N+](=O)[O-])cc1
100 to 500	O/C(=C\C1=Nc2c(CN3CCOCC3)cccc2C2=NCCN12)c1cccnc1
≤ 100	COc1cccc2c1N=C(NC(=O)c1ccc3[nH]cnc3c1)N1CCN=C21
> 2000	O=C(NC1=Nc2ccccc2C2=NCCN12)c1cccc([N+](=O)[O-])c1
100 to 500	O=C(NC1=Nc2ccccc2C2=NCCN12)c1c[nH]cn1
100 to 500	O/C(=C\C1=Nc2ccccc2C2=NCCN12)c1ccno1
≤ 100	O=C(NC1=Nc2c(cccc2C(F)(F)F)C2=NCCN12)c1ccc2[nH]cnc2c1
100 to 500	Cc1nc2ccccn2c1C(=O)NC1=Nc2ccccc2C2=NCCN12
≤ 100	COc1cc2c(cc1OC)C1=NCCN1C(NC(=O)c1cncc(O)c1)=N2
100 to 500	O=C(NC1=Nc2ccc(Br)cc2C2=NCCN12)c1cccnc1
100 to 500	O/C(=C\C1=Nc2c(cccc2C(F)(F)F)C2=NCCN12)c1cccnc1
500 to 2000	Cn1cccc1C(=O)NC1=Nc2ccccc2C2=NCCN12
100 to 500	COc1cc2c(cc1OC)C1=NCCN1C(NC(=O)c1ccc(NC(C)=O)nc1)=N2
> 2000	CCOC(=O)c1cc(C(=O)NC2=Nc3ccccc3C3=NCCN23)cc(C(=O)OCC)c1
≤ 100	COc1cc2c(c(OC)c1C)N=C(/C=C(\O)c1cccnc1)N1CCN=C21
100 to 500	O/C(=C\C1=Nc2cc(Cl)ccc2C2=NCCN12)c1cccnc1
≤ 100	COc1cccc2c1N=C(NC(=O)c1cccnc1Cl)N1CCN=C21
≤ 100	CC(=O)Nc1ccc(C(=O)NC2=Nc3ccccc3C3=NCCN23)cn1
100 to 500	Cc1nc2ncccc2cc1C(=O)NC1=Nc2ccccc2C2=NCCN12
> 2000	O=C(NC1=Nc2ccccc2C2=NCCN12)c1ccc(-n2ccnc2)cc1
≤ 100	COc1c(OCC(=O)N2CCOCC2)ccc2c1N=C(/C=C(\O)c1cccnc1)N1CCN=C21

IC50 [nM]	Compound
> 2000	CS(=O)(=O)c1ccc(C(=O)NC2=Nc3ccccc3C3=NCCN23)cc1
100 to 500	COc1cncc(C(=O)NC2=Nc3ccccc3C3=NCCN23)c1
100 to 500	CNc1ccc(C(=O)NC2=Nc3ccccc3C3=NCCN23)cn1
≤ 100	O=C(NC1=Nc2ccccc2C2=NCCN12)c1cncc(O)c1
≤ 100	CC(=O)Nc1ccc(/C(O)=C/C2=Nc3c(C)cccc3C3=NCCN23)cn1
≤ 100	COc1cc(OC)c2c(c1)C1=NCCN1C(/C=C(\O)c1cccnc1)=N2
> 2000	O=C(NC1=Nc2ccccc2C2=NCCN12)c1ccc(Cl)cc1
> 2000	NS(=O)(=O)c1ccc(C(=O)NC2=Nc3ccccc3C3=NCCN23)c(Cl)c1
100 to 500	CC(=O)Nc1ccc(/C(O)=C/C2=Nc3cc(CN4CCOCC4)ccc3C3=NCCN23)cn1
≤ 100	Cc1ccc2c(c1)N=C(NC(=O)c1cccnc1)N1CCN=C21
≤ 100	O=C(NC1=Nc2ccc(Cl)cc2C2=NCCN12)c1cccnc1
≤ 100	COc1c(C)ccc2c1N=C(/C=C(\O)c1ccc3[nH]cnc3c1)N1CCN=C21
100 to 500	O/C(=C\C1=Nc2c(OCCN3CCOCC3)cccc2C2=NCCN12)c1cccnc1
≤ 100	COc1cccc2c1N=C(/C=C(\O)c1cccnc1)N1CCN=C21
100 to 500	COc1cc2c(c(OC)c1C)N=C(/C=C(\O)c1ccc3[nH]cnc3c1)N1CCN=C21
100 to 500	O=C(NC1=Nc2cc(OCCOCCO)ccc2C2=NCCN12)c1cccnc1
100 to 500	O=C(NC1=Nc2cc(Cl)ccc2C2=NCCN12)c1cccnc1
100 to 500	Cc1ccc2c(c1)N=C(NC(=O)c1cccs1)N1CCN=C21
100 to 500	CCn1nc(C)cc1C(=O)NC1=Nc2ccccc2C2=NCCN12
≤ 100	COc1cccc2c1N=C(NC(=O)c1cc3cccnc3nc1C(F)(F)F)N1CCN=C21
